Experimental data: US20250319145A1, “EXTRACT WITH ANTI-INFLAMMATORY EFFECT” (Medizinische Universitat Innsbruck, priority 2021, published 2025)

What was measured:
IKKβ Kinase = target: T1, IKKβ Kinase (Homo sapiens, UniProt O14920); assay: In vitro immunoprecipitation IKKβ kinase assay with IκBα as substrate (autoradiography); format: biochemical; conditions: 1.6, 2.8 and 6% vs DMSO control; FIG. 9
T1 construct: made in house; host or cells: HEK 293T cells (transient transfection, anti-HA immunoprecipitation)
T1 sequence (O14920 1-756): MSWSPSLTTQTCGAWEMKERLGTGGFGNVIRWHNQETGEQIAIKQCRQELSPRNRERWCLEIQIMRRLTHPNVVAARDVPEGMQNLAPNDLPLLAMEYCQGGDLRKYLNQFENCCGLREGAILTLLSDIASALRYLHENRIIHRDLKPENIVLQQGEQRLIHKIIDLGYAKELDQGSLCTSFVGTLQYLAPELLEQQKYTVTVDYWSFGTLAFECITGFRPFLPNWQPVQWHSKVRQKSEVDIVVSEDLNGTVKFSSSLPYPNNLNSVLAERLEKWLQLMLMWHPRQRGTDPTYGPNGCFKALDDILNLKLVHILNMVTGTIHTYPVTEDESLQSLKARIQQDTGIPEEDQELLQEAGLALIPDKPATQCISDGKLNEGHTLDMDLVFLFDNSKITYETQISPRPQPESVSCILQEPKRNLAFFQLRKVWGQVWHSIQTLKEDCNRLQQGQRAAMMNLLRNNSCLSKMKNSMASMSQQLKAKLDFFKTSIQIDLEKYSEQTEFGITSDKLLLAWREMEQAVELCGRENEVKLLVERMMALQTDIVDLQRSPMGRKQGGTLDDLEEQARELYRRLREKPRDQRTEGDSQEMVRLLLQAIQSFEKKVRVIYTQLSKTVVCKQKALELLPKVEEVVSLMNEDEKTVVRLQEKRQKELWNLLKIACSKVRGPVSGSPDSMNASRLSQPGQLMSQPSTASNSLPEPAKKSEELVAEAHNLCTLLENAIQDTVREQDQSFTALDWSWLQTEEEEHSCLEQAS
Procedure: The IKK complex subunit IKKβ is responsible for the phosphorylation of IκBα and it's targeting for degradation upon TNFα induction. Therefore, it has been investigated whether the extracts inhibit IKKβ. […] The kinase assay was based on quantifying the activity of the kinase IKKβ via autoradiography.
Specifically, HEK 293T cells were transfected with the HA-IKKβ construct. Cells were washed with ice-cold phosphate-buffered saline (PBS) and extracted with lysis buffer containing 50 mM HEPES (pH 7.5), 150 mM NaCl, 1% (vol/vol) Nonidet P-40, 2 mM EDTA, 50 mM sodium fluoride, 10 mM sodium pyrophosphate, 1 mM sodium orthovanadate, 50 μg of leupeptin (Boehringer Mannheim)/ml, 0.5% aprotinin (Sigma), 1 mM phenylmethylsulphonyl fluoride (Sigma), and 3 mM benzamidine (Sigma). 300 ng of total protein were immunoprecipitated with 2 μg of anti-HA antibodies and immune complexes were collected using protein A-Sepharose beads (Amersham Pharmacia Biotech). Immune complexes were washed three times with lysis buffer followed by a single wash with high salt buffer (500 mM NaCl) and kinase assay buffer (50 mM HEPES [pH 7.5], 10 mM MgCl2, 1 mM dithiothreitol, 10 mM β-glycerophosphate). […] Samples were subjected to 10% SDS-PAGE, and the amount of ^32P incorporated into the IKKβ and IκBα proteins was assessed by autoradiography (FIG. 4). […]

[1] = tested on: reconstructed human epidermis (RHE)-models; assay: Cytokine release in reconstituted human epidermis model after TNFα; format: cell-based; conditions: 0.75 ng/ml TNFα, extract 10 μg/ml in medium, 24 h and 48 h
Procedure: The bioactivity of the extract of Chromochloris zofingiensis (2022C) was tested in human epidermis equivalents by measuring cytokine secretion in response to TNFα treatment.
The extract was tested in a physiological relevant set-up represented by reconstructed human epidermis (RHE)-models (FIG. 2), (W. Pixelproduction, epiCS—CellSystems GmbH. [Online]. Available: https://cellsystems.de/cells-and-media/c/epics (accessed: Oct. 2 2020)), purchased from Cell Systems. epiCS RHE models are validated for the classification of compounds according to the OECD test guideline 431. […]
The secretion of relevant pro-inflammatory cytokines of RHE-models (from Cell Systems Biotechnology), were quantified after induction with 0.75 ng/ml TNFα and treatment with DMSO, WFA or the extract of Chromochloris zofingiensis in a concentration of 10 μg/ml in DMSO.
After culturing the keratinocyte cell layer in cell culture inserts (0.6 cm^2) under submerged conditions, the tissues were lifted to the air-liquid interphase to induce differentiation, epithelial stratification and cornification. […] The cytokine release was evaluated 24 h and 48 h after the TNFα treatment. The secretion of the cytokines IL-1ra, RANTES, IL-1α, GM-CSF, TSLP, IP-10, IL-18, IL-6, IL-8, IL-10, MCP-1, IL-1β, TNFα and INF-β was measured. […]

Row | direct inhibition of the IKKβ kinase (IKKβ Kinase) | Compound | release of IL-10, MCP-1, IP-10 and RANTES [1]
1 | no inhibition | diacylglyceryl-N,N,N-trimethylhomoserine [DGTS] | –
2 | – | CC1=C(CO)C(=O)O[C@@H]([C@@H](C)[C@H]2CC[C@H]3[C@@H]4C[C@H]5O[C@]56[C@@H](O)C=CC(=O)[C@]6(C)[C@H]4CC[C@]23C)C1 [WFA, Withaferin A] | substantial decrease
